# Assays:
# [1] = target: T1, 17-beta-hydroxysteroid dehydrogenase type 3 (Homo sapiens, UniProt P37058); experiment: Inhibition of 17betaHSD3 (unknown origin) transfected in human LNCAP cells assessed as conversion of [14C]-4-androstene-3,17-dione into [14C]-testosterone after 3 hrs; assay type: cell-based
# T1 sequence (P37058 whole entry): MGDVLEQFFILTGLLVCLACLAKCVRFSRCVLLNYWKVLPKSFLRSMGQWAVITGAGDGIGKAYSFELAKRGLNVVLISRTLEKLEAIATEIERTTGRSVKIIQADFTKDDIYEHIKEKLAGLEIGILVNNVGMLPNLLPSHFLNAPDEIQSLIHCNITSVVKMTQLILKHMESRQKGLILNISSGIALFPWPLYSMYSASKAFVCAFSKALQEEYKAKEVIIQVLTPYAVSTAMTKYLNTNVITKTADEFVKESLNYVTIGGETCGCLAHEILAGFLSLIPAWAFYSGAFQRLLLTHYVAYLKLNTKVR
# LNCaP [2] = experiment: Drug localization in 17betaHSD3 expressing human LNCAP cell assessed as localized space around endoplasmic reticulum at 1 uM preincubated for 3 hrs followed by ER tracker addition for the last remaining hour by fluorescent microscopic analysis; assay type: ADME, cell-based
# LNCaP [3] = experiment: Drug uptake in 17betaHSD3 expressing human LNCAP cells assessed as mean fluorescence intensity at 30 uM after 4 hrs by flow cytometric analysis; assay type: ADME, cell-based
# LNCaP [4] = experiment: Drug uptake in 17betaHSD3 expressing human LNCAP cells assessed as shape of the cells at 10 uM excited at 350 nm after 4 hrs by fluorescence confocal spinning disk microscopic analysis; assay type: ADME, cell-based
# [5] = Drug localization in 17betaHSD3 expressing human LNCAP cell assessed as localised around lysosomes at 1 uM after 4 hrs by fluorescent microscopic analysis in the presence of lysosome tracker; assay type: ADME, cell-based
# LNCaP [6] = experiment: Drug uptake in wild type human LNCAP cells assessed as shape of the cells at 10 uM excited at 350 nm after 4 hrs by fluorescence confocal spinning disk microscopic analysis; assay type: ADME, cell-based
# LNCaP [7] = experiment: Drug uptake in wild-type human LNCAP cells at 3 to 50 uM after 4 hrs by flow cytometric analysis; assay type: ADME, cell-based
# LNCaP [8] = experiment: Drug uptake in 17betaHSD3 expressing human LNCAP cells at 3 to 50 uM after 4 hrs by flow cytometric analysis; assay type: ADME, cell-based
Compound,IC50 [1] [µM],Drug uptake (LNCaP [2]),Flu intensity (LNCaP [3]),Drug uptake (LNCaP [4]),Drug uptake [5],Drug uptake (LNCaP [6]),Drug uptake (LNCaP [7]),Drug uptake (LNCaP [8])
C[C@@H]1CN(S(=O)(=O)c2ccccc2C(F)(F)F)[C@@H](C)CN1C[C@@]1(O)CC[C@@]2(C)[C@@H](CC[C@@H]3[C@@H]2CC[C@]2(C)C(=O)CC[C@@H]32)C1,0.085,,,,,,,
C[C@@H]1CN(S(=O)(=O)c2cccc3c(N(C)C)cccc23)[C@@H](C)CN1C[C@@]1(O)CC[C@@]2(C)[C@@H](CC[C@@H]3[C@@H]2CC[C@]2(C)C(=O)CC[C@@H]32)C1,0.262,Active,4,Active,Active,Not Active,Active,Active
